We go through 5 compounds from PMC2682573, “A Novel Two Mode-Acting Inhibitor of ABCG2-Mediated Multidrug Transport and Resistance in Cancer Chemotherapy” (PLoS ONE, 2009).

The structures appear in SMILES notation.

For orientation: Km means the substrate concentration at which the rate is half of its maximum.

In data set [1] the target is T1, ABCG2 (Homo sapiens, UniProt Q9UNQ0).
T1 sequence (Q9UNQ0 1-655): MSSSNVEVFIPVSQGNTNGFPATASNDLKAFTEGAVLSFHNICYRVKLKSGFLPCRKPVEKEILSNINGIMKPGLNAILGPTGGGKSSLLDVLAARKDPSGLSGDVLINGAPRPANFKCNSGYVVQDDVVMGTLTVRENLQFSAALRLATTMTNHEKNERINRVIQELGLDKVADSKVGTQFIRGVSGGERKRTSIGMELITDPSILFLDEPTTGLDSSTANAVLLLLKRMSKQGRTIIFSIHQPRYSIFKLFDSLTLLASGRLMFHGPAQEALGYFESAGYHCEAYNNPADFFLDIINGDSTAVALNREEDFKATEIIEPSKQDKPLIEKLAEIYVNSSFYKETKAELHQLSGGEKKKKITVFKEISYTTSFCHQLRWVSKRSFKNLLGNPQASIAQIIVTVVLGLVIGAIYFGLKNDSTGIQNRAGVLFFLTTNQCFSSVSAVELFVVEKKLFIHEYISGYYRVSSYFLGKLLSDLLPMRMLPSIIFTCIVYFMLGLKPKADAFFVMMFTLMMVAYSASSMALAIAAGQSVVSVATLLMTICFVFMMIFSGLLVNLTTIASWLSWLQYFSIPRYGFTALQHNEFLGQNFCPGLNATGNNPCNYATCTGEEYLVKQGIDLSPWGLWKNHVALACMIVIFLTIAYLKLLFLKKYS
Nature of the data set: mitoxantrone accumulation ([…]) and 5D3 conformational staining ([…]) in HEK293/ABCG2 cells. It counts as cell-based.

The target in data set [2] is T1, ABCG2. The conditions noted are these: hek293/abcg2 inside-out membrane vesicles.
The target in data set [3] is T1, ABCG2. Nature of the data set: reference inhibitor; mitoxantrone accumulation, 5D3 conformational staining and sensitization IC50 in HEK293/ABCG2 cells. It counts as cell-based.

Take `CC(C)(C)NC(=O)CSc1nc2ccc(Nc3nc(N4CCOCC4)nc(N4CCOCC4)n3)cc2s1` [C6]: on ABCG2 [1], the “mitoxantrone accumulation (3 μM) and 5D3 conformational staining (10 μM) in HEK2” value (“mitoxantrone accumulation” for short) is “All three analogues had similar activity as PZ-39 in enhancing mitoxantrone accumulation”.

As for `CC(=O)CSc1nc2ccc(Nc3nc(N4CCOCC4)nc(N4CCOCC4)n3)cc2s1` [C8], the “mitoxantrone accumulation” value at ABCG2 [1] is recorded as “All three analogues had similar activity as PZ-39 in enhancing mitoxantrone accumulation”.

In the case of `O=C(CSc1nc2ccc(Nc3nc(Nc4ccccc4)nc(Nc4ccccc4)n3)cc2s1)N1CCCC1` [E2], the “mitoxantrone accumulation” value at ABCG2 [1] is “All three analogues had similar activity as PZ-39 in enhancing mitoxantrone accumulation”.

As for `O=C1c2c(O)ccc(O)c2C(=O)c2c(NCCNCCO)ccc(NCCNCCO)c21` [mitoxantrone], on ABCG2 [2], the Michaelis constant (Km) was determined as 2.3 µM.

For the compound `COc1ccc2c3c([nH]c2c1)[C@H](C=C(C)C)N1C(=O)[C@@H]2CCCN2C(=O)[C@@H]1C3` [FTC, Fumitremorgin C], at ABCG2 [3], the “IC50 (μM) / Inhibitor+MX ^a” value amounted to 0.387 ± 0.054 µM.
